Test results from patent publication US8987195B2 (priority 2012, dated 2015).

Biological target: HCV NS3/4A protease genotype 1b (Hepatitis C virus genotype 1b, UniProt P26663)
Experiment: HCV NS3/4A protease time-resolved fluorescence (TRF) assay, Ki against genotype 1b
Format: biochemical
Conditions: IC50 [gt-1b], NS3/4A protease TRF assay, genotype 1b enzyme 0.2 nM
Procedure: Measuring NS3/4A Inhibitory Activity (Ki) Against Genotype 1b, Against A156T Mutants and Against Genotype 3a
One assay for measuring inhibitory activity is HCV NS3 protease time-resolved fluorescence (TRF) assay as described below and in Mao et al., Anal. Biochem. 373:1-8, 2008 and International Patent Application Publication WO 2006/102087. A NS3 protease assay can be performed, for example, in a final volume of 20 μl assay buffer containing 50 mM HEPES, pH 7.5, 150 mM NaCl, 15% glycerol, 0.15% TRITON X-100, 10 mM DTT, and 0.1% PEG 8000. NS3 and NS4A protease is pre-incubated with various concentrations of inhibitors in DMSO for 30 min. The reaction is initiated by adding the TRF peptide substrate (final concentration 25 nM). NS3 mediated hydrolysis of the substrate was run for 2.5 hours at room temperature. Product fluorescence is detected using A Pherastar Plus plate reader (BMG) or Envision (Perkin Elmer Life and Analytical Sciences with excitation at 340 nm and emission at 615 nm using the appropriate delay time optimized for the europium fluorescence probe. Testing concentrations of different enzyme forms are selected to result in a signal to background ratio (S/B) of 10-30. IC50 values are derived using a standard four-parameter fit to the data. Ki values are derived from IC50 values using the following formula, IC50=Ki(1+[S]/KM), Eqn (1), where [S] is the concentration of substrate peptide in the reaction and KM is the Michaelis constant. See P. Gallinari et al., 38 BIOCHEM. 5620-32 (1999); P. Gallinari et al., 72 J. VIROL. 6758-69 (1998); M. Taliani et al., 240 ANAL. BIOCHEM. 60-67 (1996); Mao et al., Analytical Biochemistry 373: 1-8, 2008.
The assay described above was run against genotype 1b at a concentration of 0.2 nM, against A156T mutant strains at a concentration of 0.4 nM, and against genotype 3a at a concentration of 0.025 nM.

## COc1cc(Cl)c2nc(C(F)(F)F)c3c(c2c1)CC[C@]1(C[C@H]2C(=O)N[C@]4(C(=O)NS(=O)(=O)C5(C)CC5)C[C@H]4/C=C\CCCCC[C@H](NC(=O)OC(C)(C)C(F)(F)F)C(=O)N2C1)O3 [Example 400, 1,1,1-trifluoro-2-methylpropan-2-yl [(2R,6S,12Z,13aS,14aR,16aS)-7′-chloro-9′-methoxy-14a-{[(1-methylcyclopropyl)sulfonyl]carbamoyl}-5,16-dioxo-5′-(trifluoromethyl)-1,1′,2′,5,6,7,8,9,10,11,13a,14,14a,15,16,16a-hexadecahydrospiro[cyclopropa[e]pyrrolo[1,2-a][1,4]diazacyclopentadecine-2,3′-pyrano[2,3-c]quinolin]-6-yl]carbamate]
  IC50: 52 pM

## COc1cc(Cl)c2nc(C(F)(F)F)c3c(c2c1)CC[C@]1(C[C@H]2C(=O)N[C@]4(C(=O)NS(=O)(=O)C5(C)CC5)C[C@H]4/C=C\CCCCC[C@H](NC(=O)OCC(C)(C)C)C(=O)N2C1)O3 [Example 401, 2,2-dimethylpropyl [(2R,6S,12Z,13aS,14aR,16aS)-7′-chloro-9′-methoxy-14a-{[(1-methylcyclopropyl)sulfonyl]carbamoyl}-5,16-dioxo-5′-(trifluoromethyl)-1,1′,2′,5,6,7,8,9,10,11,13a,14,14a,15,16,16a-hexadecahydrospiro[cyclopropa[e]pyrrolo[1,2-a][1,4]diazacyclopentadecine-2,3′-pyrano[2,3-c]quinolin]-6-yl]carbamate]
  IC50: 57 pM

## COc1ccc2nc(C(F)F)c3c(c2c1)CC[C@]1(C[C@H]2C(=O)NC4(C(=O)NS(=O)(=O)C5(C)CC5)C[C@H]4/C=C\CCCCC[C@H](NC(=O)O[C@@H]4C[C@@H]5C[C@@H]5C4)C(=O)N2C1)O3 (stereo partly drawn) [Example 503, (1R,3r,5S)-bicyclo[3.1.0]hex-3-yl [(2R,6S,12Z,13aS,14aR,16aS)-5′-(difluoromethyl)-9′-methoxy-14a-{[(1-methylcyclopropyl)sulfonyl]carbamoyl}-5,16-dioxo-1,1′,2′,5,6,7,8,9,10,11,13a,14,14a,15,16,16a-hexadecahydrospiro[cyclopropa[e]pyrrolo[1,2-a][1,4]diazacyclopentadecine-2,3′-pyrano[2,3-c]quinolin]-6-yl]carbamate]
K+ salt
  IC50: 7 pM

## COc1ccc2nc(C(F)F)c3c(c2c1)CC[C@]1(C[C@H]2C(=O)N[C@]4(C(=O)NS(=O)(=O)C5(C)CC5)C[C@H]4/C=C\CCCCC[C@H](NC(=O)OCC4CCC4)C(=O)N2C1)O3 [Example 504, cyclobutylmethyl [(2R,6S,12Z,13aS,14aR,16aS)-5′-(difluoromethyl)-9′-methoxy-14a-{[(1-methylcyclopropyl)sulfonyl]carbamoyl}-5,16-dioxo-1,1′,2′,5,6,7,8,9,10,11,13a,14,14a,15,16,16a-hexadecahydrospiro[cyclopropa[e]pyrrolo[1,2-a][1,4]diazacyclopentadecine-2,3′-pyrano[2,3-c]quinolin]-6-yl]carbamate]
K+ salt
  IC50: 10 pM

## COc1ccc2nc(C(F)(F)F)c3c(c2c1)[C@](C)(O)C[C@]1(C[C@H]2C(=O)N[C@]4(C(=O)NS(=O)(=O)C5(C)CC5)C[C@H]4/C=C\CCCCC[C@H](NC(=O)OCC(C)C)C(=O)N2C1)O3 [Example 505, 2-methylpropyl [(1′R,2S,6S,12Z,13aS,14aR,16aS)-1′-hydroxy-9′-methoxy-1′-methyl-14a-{[(1-methylcyclopropyl)sulfonyl]carbamoyl}-5,16-dioxo-5′-(trifluoromethyl)-1,1′,2′,5,6,7,8,9,10,11,13a,14,14a,15,16,16a-hexadecahydrospiro[cyclopropa[e]pyrrolo[1,2-a][1,4]diazacyclopentadecine-2,3′-pyrano[2,3-c]quinolin]-6-yl]carbamate]
  IC50: 16 pM

## COc1ccc2nc(C(F)(F)F)c3c(c2c1)[C@](C)(O)C[C@]1(C[C@H]2C(=O)N[C@]4(C(=O)NS(=O)(=O)C5(C)CC5)C[C@H]4/C=C\CCCCC[C@H](NC(=O)OCC(C)(C)C)C(=O)N2C1)O3 [Example 506, 2,2-dimethylpropyl [(1′R,2S,6S,12Z,13aS,14aR,16aS)-1′-hydroxy-9′-methoxy-1′-methyl-14a-{[(1-methylcyclopropyl)sulfonyl]carbamoyl}-5,16-dioxo-5′-(trifluoromethyl)-1,1′,2′,5,6,7,8,9,10,11,13a,14,14a,15,16,16a-hexadecahydrospiro[cyclopropa[e]pyrrolo[1,2-a][1,4]diazacyclopentadecine-2,3′-pyrano[2,3-c]quinolin]-6-yl]carbamate]
  IC50: 15 pM

## COc1ccc2nc(C(F)F)c3c(c2c1)CC[C@]1(C[C@H]2C(=O)N[C@]4(C(=O)NS(=O)(=O)C5(C)CC5)C[C@H]4/C=C\CCCCC[C@H](NC(=O)OC4CCC4)C(=O)N2C1)O3 [Example 508, cyclobutyl [(2R,6S,12Z,13aS,14aR,16aS)-5′-(difluoromethyl)-9′-methoxy-14a-{[(1-methylcyclopropyl)sulfonyl]carbamoyl}-5,16-dioxo-1,1′,2′,5,6,7,8,9,10,11,13a,14,14a,15,16,16a-hexadecahydrospiro[cyclopropa[e]pyrrolo[1,2-a][1,4]diazacyclopentadecine-2,3′-pyrano[2,3-c]quinolin]-6-yl]carbamate]
K+ salt
  IC50: 4 pM

## CCc1nc2ccc(OCCN3CCOCC3)cc2c2c1O[C@]1(CC2)C[C@H]2C(=O)N[C@]3(C(=O)NS(=O)(=O)C4(C)CC4)C[C@H]3/C=C\CCCCC[C@H](NC(=O)OC3(C)CCC3)C(=O)N2C1 [Example 509, 1-methylcyclobutyl {(2R,6S,12Z,13aS,14aR,16aS)-5′-ethyl-14a-{[(1-methylcyclopropyl)sulfonyl]carbamoyl}-9′-[2-(morpholin-4-yl)ethoxy]-5,16-dioxo-1,1′,2′,5,6,7,8,9,10,11,13a,14,14a,15,16,16a-hexadecahydrospiro[cyclopropa[e]pyrrolo[1,2-a][1,4]diazacyclopentadecine-2,3′-pyrano[2,3-c]quinolin]-6-yl}carbamate]
K+ salt
  IC50: 6 pM

## CCc1nc2ccc(OCCN3CCOCC3)cc2c2c1O[C@]1(CC2)C[C@H]2C(=O)N[C@]3(C(=O)NS(=O)(=O)C4(C)CC4)C[C@H]3/C=C\CCCCC[C@H](NC(=O)OCC(C)(C)C)C(=O)N2C1 [Example 510, 2,2-dimethylpropyl {(2R,6S,12Z,13aS,14aR,16aS)-5′-ethyl-14a-{[(1-methylcyclopropyl)sulfonyl]carbamoyl}-9′-[2-(morpholin-4-yl)ethoxy]-5,16-dioxo-1,1′,2′,5,6,7,8,9,10,11,13a,14,14a,15,16,16a-hexadecahydrospiro[cyclopropa[e]pyrrolo[1,2-a][1,4]diazacyclopentadecine-2,3′-pyrano[2,3-c]quinolin]-6-yl}carbamate]
K+ salt
  IC50: 4 pM

## CCc1nc2ccc(OCCCN3CCOCC3)cc2c2c1O[C@]1(CC2)C[C@H]2C(=O)N[C@]3(C(=O)NS(=O)(=O)C4(C)CC4)C[C@H]3/C=C\CCCCC[C@H](NC(=O)OCC(C)(C)C)C(=O)N2C1 [Example 521, 2,2-dimethylpropyl {(2R,6S,12Z,13aS,14aR,16aS)-5′-ethyl-14a-{[(1-methylcyclopropyl)sulfonyl]carbamoyl}-9′-[3-(morpholin-4-yl)propoxy]-5,16-dioxo-1,1′,2′,5,6,7,8,9,10,11,13a,14,14a,15,16,16a-hexadecahydrospiro[cyclopropa[e]pyrrolo[1,2-a][1,4]diazacyclopentadecine-2,3′-pyrano[2,3-c]quinolin]-6-yl}carbamate]
HCl salt
  IC50: 4 pM

## COCCCOc1ccc2nc(C(F)(F)F)c3c(c2c1)CC[C@]1(C[C@H]2C(=O)N[C@]4(C(=O)NS(=O)(=O)C5(C)CC5)C[C@H]4/C=C\CCCCC[C@H](NC(=O)OC4(C)CCC4)C(=O)N2C1)O3 [Example 523, 1-methylcyclobutyl [(2R,6S,12Z,13aS,14aR,16aS)-9′-(3-methoxypropoxy)-14a-{[(1-methylcyclopropyl)sulfonyl]carbamoyl}-5,16-dioxo-5′-(trifluoromethyl)-1,1′,2′,5,6,7,8,9,10,11,13a,14,14a,15,16,16a-hexadecahydrospiro[cyclopropa[e]pyrrolo[1,2-a][1,4]diazacyclopentadecine-2,3′-pyrano[2,3-c]quinolin]-6-yl]carbamate]
K+ salt
  IC50: 9 pM
